The results in this text go back to article PMC10089289, “Well-Defined Heparin Mimetics Can Inhibit Binding of the Trimeric Spike of SARS-CoV-2 in a Length-Dependent Manner” (JACS Au, 2023).

Usually IC50 stands for the concentration needed to halve the response being measured.

The test system of one series is Vero E6 cells. Particulars: 100 μg/mL; 24 h incubation.
A further series relates to Factor-Xa. Description: AT-III mediated Factor-Xa inhibition assay (Biophen Anti-Xa, two-stage chromogenic). Format: biochemical, bovine. Particulars: colorimetric, Biophen Anti-Xa kit. As for the experimental part:
(§1) To validate the SPR results, AT-III-mediated anti-Factor-Xa and anti-Factor-IIa activities of the mimetics and UFH were measured using a colorimetric assay (Biophen Anti-Xa and Anti-IIa kits, two-stage chromogenic assays) (Figures 6B and S16–S17).
(§2) AT-III mediated Factor-IIa inhibition assays: Anti-Factor IIa activity of mimetics (1 and 6) and UFH was determined by BIOPHENÔ ANTI-IIa (2 Stages Heparin Assay) kit following manufacturer’s instructions. Human antithrombin (AT-III), purified human thrombin (Factor IIa) and thrombin specific chromogenic substrate [CS-01(38)] were reconstituted and prepared in specific buffers in accordance with kit protocol. […] After exactly 2 min, the reaction was stopped by introducing citric acid (2 wt.%, 80 µL), mixed and absorbance at 405 nm (POLARstar Optima, BMG Labtech) against the corresponding blank was measured. […] Measured blank value were subtracted from the absorbance measured for the corresponding test. The IC50 values (Figures S16) were calculated using dose-response equations [nonlinear regression, log(inhibitor) vs. response-variable slope (four parameters)] built in Prism software 9 (GraphPad Software, Inc.). […]
(§3) AT-III mediated Factor-Xa inhibition assays: Anti-Factor Xa activity of mimetics (1 and 6) and UFH was determined by BIOPHENÔ ANTI-Xa (2 Stages Heparin Assay) kit following manufacturer’s instructions. […]

In series [1] the target is T1, antithrombin-III (AT-III) (Homo sapiens, UniProt P01008).
T1 construct: purchased Haematologic technologies
T1 sequence (P01008 33-464): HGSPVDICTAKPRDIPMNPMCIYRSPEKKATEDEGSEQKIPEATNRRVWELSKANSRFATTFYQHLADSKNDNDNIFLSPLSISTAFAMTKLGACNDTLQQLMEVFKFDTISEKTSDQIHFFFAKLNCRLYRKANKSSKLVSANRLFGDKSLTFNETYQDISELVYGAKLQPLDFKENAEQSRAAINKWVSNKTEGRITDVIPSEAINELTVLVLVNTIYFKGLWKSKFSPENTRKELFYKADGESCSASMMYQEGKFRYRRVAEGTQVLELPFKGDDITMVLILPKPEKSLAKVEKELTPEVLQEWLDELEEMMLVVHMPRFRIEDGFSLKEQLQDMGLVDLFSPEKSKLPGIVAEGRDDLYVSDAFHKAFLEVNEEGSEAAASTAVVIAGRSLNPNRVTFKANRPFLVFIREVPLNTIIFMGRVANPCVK
Description: SPR competition assay: binding of AT-III to heparin chip. Particulars: 100 nM AT-III, 100 to 0.001 μg/mL. An excerpt:
(§4) A competition SPR method[32]−[34] was employed to examine the binding of compounds 1 and 6 to AT-III and PF4, and the results were compared to similar properties of UFH. First, biotinylated heparin was immobilized on a streptavidin-coated sensor chip, which was employed to establish equilibrium dissociation constants (KD) of AT-III and PF4 by employing different concentrations of these proteins as analytes (Figure S9). […] The determined KD values are in close agreement with literature reports.[34]−[36] Next, inhibition experiments were performed by premixing different concentrations of monovalent 1, tetravalent 6, and UFH with AT-III or PF4 followed by exposure to the sensor chip modified by heparin. […] The fact that tetravalent 6 does bind to PF4 supports the notion that it is a mimetic of heparin.
(§5) 6. Coagulation-related proteins SPR binding and competition studies
(§6) Coagulation-related proteins SPR binding studies: Human antithrombin-III (AT-III) was obtained from Haematologic technologies. […] Using Biacore T100 evaluation software, AT-III equilibrium dissociation constant (KD) was determined by fitting binding curves to two-state reaction model built in Biacore T100 evaluation software. For PF-4, steady-state affinity analysis was performed on the response curves of various PF-4 concentrations and KD value was calculated (Figure S9). […]

The target in a further series is T2, platelet factor 4 (PF4) (Homo sapiens, UniProt P02776).
T2 construct: purchased Sino Biological, Inc
T2 sequence (P02776 32-101): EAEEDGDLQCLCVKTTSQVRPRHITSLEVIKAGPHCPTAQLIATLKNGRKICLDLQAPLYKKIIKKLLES
The experiment in a line: SPR competition assay: binding of PF4 to heparin chip. The following applies: 100 nM PF-4, 100 to 0.001 μg/mL.
Text: as §4, §5, §6

Series [2] concerns the target trimeric spike glycoprotein of SARS-CoV-2. The experiment in a line: SPR competition assay: binding of SARS-CoV-2 spike trimer to heparin-immobilized sensor chip. The following applies: 100 nM spike trimer, 25 °C, read-out: IC50, inhibition of binding of spike trimer to immobilized heparin (50% reduction in RUs).
The next series addresses T3, Factor-IIa (thrombin) (Homo sapiens, UniProt P00734).
T3 construct: purchased BIOPHEN ANTI-IIa (2 Stages Heparin Assay) kit
Description: AT-III mediated Factor-IIa inhibition assay (Biophen Anti-IIa, two-stage chromogenic). Particulars: colorimetric, Biophen Anti-IIa kit. Format: biochemical. As for the experimental part:
as §1, §2, §3

Series [3] has as its target SARS-CoV-2 Wuhan RBD binding to Vero E6 cells (Severe acute respiratory syndrome coronavirus 2, UniProt P0DTC2). In kind it is cell-based.

Where only a bound is given, the exact number is not on record here.

As to `NCCCCCOC1OC(COS(=O)(=O)O)C(OC2OC(C(=O)O)C(OC3OC(COS(=O)(=O)O)C(OC4OC(C(=O)O)C(OC5OC(COS(=O)(=O)O)C(OC6OC(C(=O)O)C(O)C(O)C6O)C(O)C5NS(=O)(=O)O)C(O)C4OS(=O)(=O)O)C(O)C3NS(=O)(=O)O)C(O)C2OS(=O)(=O)O)C(O)C1NS(=O)(=O)O` (stereo not drawn) [Compound 1, GlcA-GlcNS6S-IdoA2S-GlcNS6S-IdoA2S-GlcNS6S], the “Cytotoxicity on Vero E6 cells” value in the series with Vero E6 cells is given as “no toxicity”. Moreover, the “IC50, AT-III-mediated inhibition of Factor-Xa” value in the series on Factor-Xa amounted to 70 µg/mL. Further, the “IC50, inhibition of AT-III binding to heparin surface” value in series [1] was “no inhibitory potential”. In addition, the “IC50, inhibition of PF4 binding to heparin surface” value at platelet factor 4 (PF4) is listed as “no inhibition was observed”. Further, the IC50 in series [2] is greater than 50 µM. Also, the “IC50, AT-III-mediated inhibition of Factor-IIa” value against Factor-IIa (thrombin) is on record as “failed to invoke any inhibition”. For the same compound, the “Inhibition of trimeric RBD binding to Vero E6 cells” value in series [3] (125 μg/mL (62.6 μM), RBDs from Wuhan and delta) is listed as “failed to invoke substantial inhibition”. For the same compound, the “Inhibition of Wuhan RBD binding to Vero E6 cells” value in series [3] (RBD pretreated with 10 and 125 μg/mL compound) is on record as “no inhibition was detected”.

Regarding `CC(=O)NC1C(OC2C(C(=O)O)OC(OC3C(COS(=O)(=O)O)OC(OC4C(C(=O)O)OC(OC5C(COS(=O)(=O)O)OC(OC6C(C(=O)O)OC(OC7C(COS(=O)(=O)O)OC(OCCCCCN)C(NS(=O)(=O)O)C7O)C(OS(=O)(=O)O)C6O)C(NS(=O)(=O)O)C5O)C(OS(=O)(=O)O)C4O)C(NS(=O)(=O)O)C3O)C(O)C2O)OC(Cn2cc(CCC(=O)NCCCCCOC3OC(COS(=O)(=O)O)C(OC4OC(C(=O)O)C(OC5OC(COS(=O)(=O)O)C(OC6OC(C(=O)O)C(OC7OC(COS(=O)(=O)O)C(OC8OC(C(=O)O)C(O)C(O)C8O)C(O)C7NS(=O)(=O)O)C(O)C6OS(=O)(=O)O)C(O)C5NS(=O)(=O)O)C(O)C4OS(=O)(=O)O)C(O)C3NS(=O)(=O)O)nn2)C(O)C1O` (stereo not drawn) [Compound 4], the 50% inhibitory concentration (IC50) in series [2] was greater than 10 µM.
